One experiment addresses T1, HDM2 (Homo sapiens, UniProt Q00987).
T1 construct: Thioredoxin (N); made in house; host or cells: E. coli strain BL21(DE3)Rosetta
Description: HDM2 FRET assay (inhibition of binding of FITC labeled p53-pocket peptide to HDM2). The conditions noted are these: 0.5 nM HDM2 (residues 17 to 125), 3nM peptide, two hour incubation at room temperature; read-out: FRET IC50. Put shortly:
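Displacement of FITC-p53 peptide (3 nM) from His-tagged HDM2 (0.5 nM) is measured by Tb-to-fluorescein FRET in PBS, 0.01% BSA, 0.01% Tween-20. IC50 values derive from 10-point curves.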
T1 sequence (Q00987 17-125): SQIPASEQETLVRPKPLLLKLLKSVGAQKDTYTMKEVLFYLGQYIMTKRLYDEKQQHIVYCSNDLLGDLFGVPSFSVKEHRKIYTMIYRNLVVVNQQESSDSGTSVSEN
Consider `CC1CCCC(c2nc(-c3n[nH]c(=O)o3)nc3nc(N4CCOC[C@H]4c4ccccc4)n(C[C@H]4CC[C@H](C)CC4)c23)C1` (stereo partly drawn) [Example 16.170, 5-{6-(3-methylcyclohexyl)-7-[(trans-4-methylcyclohexyl)methyl]-8-[(3R)-3-phenylmorpholin-4-yl]-7H-purin-2-yl} - 1,3,4-oxadiazol-2(3H)-one], for which the IC50 was 8.3 nM.

Regarding `CCOc1nc(C(=O)O)nc2nc(-c3cccc(C)c3)n(Cc3ccc(C(F)(F)F)cc3)c12` [Example 17.1, 6-ethoxy-8-(3-methylphenyl)-7-[4-(trifluoromethyl)benzyl]-7H-purine-2-carboxylic acid], the concentration for half-maximal inhibition (IC50) is 5900 nM.

For `Cc1cccc(-c2nc3nc(C(=O)O)nc(OCC4CC4)c3n2Cc2ccc(C(F)(F)F)cc2)c1` [Example 17.2, 6-(cyclopropylmethoxy)-8-(3-methylphenyl)-7-[4-(trifluoromethyl)benzyl]-7H-purine-2-carboxylic acid], the IC50 worked out at 814 nM.

In the case of `Cc1cccc(-c2nc3nc(C(=O)O)nc(OCC4CCC4)c3n2Cc2ccc(C(F)(F)F)cc2)c1` [Example 17.3, 6-(cyclobutylmethoxy)-8-(3-methylphenyl)-7-[4-(trifluoromethyl)benzyl]-7H-purine-2-carboxylic acid], the IC50 turned out to be 192 nM.

Staying with this experiment, now noted: Table 17.2; read-out: FRET IC50.
Consider `CC(=O)N1CCN(c2nc3nc(-c4noc(=O)[nH]4)nc(N[C@H](C)C4CCC4)c3n2C[C@H]2CC[C@H](C)CC2)[C@H](C)C1` [Example 17.9, 3-(8-((R)-4-acetyl-2-methylpiperazin-1-yl)-6-(((R)-1-cyclobutylethyl)amino)-7-((trans-4-methylcyclohexyl)methyl)-7H-purin-2-yl)-1,2,4-oxadiazol-5(4H)-one], for which the IC50 amounted to 2.61 nM.

With `CC(=O)N1CCN(c2nc3nc(-c4noc(=O)[nH]4)nc(N[C@H](C)C4CCC4)c3n2C[C@H]2CC[C@H](C)CC2)[C@H](c2ccccc2)C1` [Example 17.10, 3-{8-[(2R)-4-acetyl-2-phenylpiperazin-1-yl]-6-{[(1R)-1-cyclobutylethyl]amino}-7-[(trans-4-methylcyclohexyl)methyl]-7H-purin-2-yl}-1,2,4-oxadiazol-5(4H)-one], the IC50 was found to be 0.215 nM.

Regarding `CC(=O)N1CCN(c2nc3nc(C(N)=O)nc(N[C@H](C)C4CCC4)c3n2C[C@H]2CC[C@H](C)CC2)[C@H](c2ccccc2)C1` [Example 17.11, 8-[(2R)-4-acetyl-2-phenylpiperazin-1-yl]-6-{[(1R)-1-cyclobutylethyl]amino}-7-[(trans-4-methylcyclohexyl)methyl]-7H-purine-2-carboxamide], the IC50 was found to be 6.33 nM.

Turning to `C[C@@H](Nc1nc(C(N)=O)nc2nc(N3CCN(S(C)(=O)=O)C[C@H]3c3ccccc3)n(C[C@H]3CC[C@H](C)CC3)c12)C1CCC1` [Example 17.12, 6-{[(1R)-1-cyclobutylethyl]amino}-7-[(trans-4-methylcyclohexyl)methyl]-8-[(2R)-4-(methylsulfonyl)-2-phenylpiperazin-1-yl]-7H-purine-2-carboxamide], the IC50 was found to be 4.6 nM.

For the molecule `C[C@@H](Nc1nc(-c2noc(=O)[nH]2)nc2nc(N3CCN(S(C)(=O)=O)C[C@H]3c3ccccc3)n(C[C@H]3CC[C@H](C)CC3)c12)C1CCC1` [Example 17.13, 3-(6-{[(1R)-1-cyclobutylethyl]amino}-7-[(trans-4-methylcyclohexyl)methyl]-8-[(2R)-4-(methylsulfonyl)-2-phenylpiperazin-1-yl]-7H-purin-2-yl)-1,2,4-oxadiazol-5(4H)-one], the IC50 stood at 1.86 nM.

In the case of `C[C@@H]1CN(S(C)(=O)=O)CCN1c1nc2nc(-c3noc(=O)[nH]3)nc(N[C@H](C)C3CCC3)c2n1C[C@H]1CC[C@H](C)CC1` [Example 17.14, 3-(6-{[(1R)-1-cyclobutylethyl]amino}-7-[(trans-4-methylcyclohexyl)methyl]-8-[(2R)-2-methyl-4-(methylsulfonyl)piperazin-1-yl]-7H-purin-2-yl)-1,2,4-oxadiazol-5(4H)-one], the IC50 amounted to 4.93 nM.

One may read the IC50 as the concentration that gives 50% inhibition.

These data come from patent EP2951180B1, “2,6,7,8 SUBSTITUTED PURINES AS HDM2 INHIBITORS” (Merck Sharp & Dohme Corp., priority 2013, dated 2014).
